Source: PubChem BioAssay AID504877 (The Scripps Research Institute Molecular Screening Center, 2011)
Several values for one entry are separate records, joined by “and”; a condition that tells them apart may be missing. Equal values may be shown once. Activity calls are given as the source filed them. How the calls were made is not given here.

Molecular target: Sphingosine 1-phosphate receptor 4 (Homo sapiens) (UniProt O95977)
Experiment: S1P4 receptor agonist potency, late-stage follow-up, cell-based, fluorescence, dose response, synthesized compounds set 2 (AID 504877)
Details: S1P4 cell-based agonist assay, fluorescence read-out

| SMILES | EC50 (run 1) | EC50 (run 2) | EC50 (run 3) |
| --- | --- | --- | --- |
| CCN=C1S/C(=C/c2cc(C)n(-c3ccc(F)cc3F)c2C)C(=O)N1CC | 75.3 nM | 133 nM | 104 nM |
| CN=C1S/C(=C\c2cc(C)n(-c3ccc(F)cc3F)c2C)C(=O)N1CCOC | 1580 nM | 1.85 nM | – |
| CCN=C1S/C(=C/c2cc(C)n(Cc3ccccc3)c2C)C(=O)N1CC | 598 nM | 703 nM | 154 nM |
| CN=C1S/C(=C/c2cc(C)n(-c3cc(C)ccc3OC)c2C)C(=O)N1C | > 50000 nM (inactive) | > 50000 nM (inactive) | > 50000 nM (inactive) |
| COCCN=C1S/C(=C\c2cc(C)n(-c3ccc(F)cc3F)c2C)C(=O)N1C | 37.7 nM and 51.4 nM | 79.1 nM | – |
| Cc1cc(/C=C2\SC(=Nc3ccccc3)NC2=O)c(C)n1-c1ccccc1F | > 50000 nM (inactive) | > 50000 nM (inactive) | > 50000 nM (inactive) |
| CN=C1S/C(=C\c2ccn(-c3ccccc3F)c2)C(=O)N1C | > 50000 nM (inactive) | > 50000 nM (inactive) | > 50000 nM (inactive) |
| Cc1cc(/C=c2\sc3n(c2=O)CCCN=3)c(C)n1-c1ccccc1F | > 50000 nM (inactive) | > 50000 nM (inactive) | > 50000 nM (inactive) |
| CCN=C1S/C(=C\c2cc(C)n(Cc3ccccc3F)c2C)C(=O)N1CC | > 50000 nM (inactive) | > 50000 nM (inactive) | > 50000 nM (inactive) |
| Cc1cc(/C=C2\SC(=O)N(C)C2=O)c(C)n1-c1ccccc1F | > 50000 nM (inactive) | > 50000 nM (inactive) | 8960 nM |
| CN=C1S/C(=C\c2cc(C)n(-c3ccccc3Br)c2C)C(=O)N1C | > 50000 nM (inactive) | > 50000 nM (inactive) | > 50000 nM (inactive) |
| Cc1cc(/C=C2\SC(=NC(C)C)N(C(C)C)C2=O)c(C)n1-c1ccccc1F | > 50000 nM (inactive) | > 50000 nM (inactive) | > 50000 nM (inactive) |
| CN=C1S/C(=C/c2cc(C)n(-c3ccc(Cl)cc3F)c2C)C(=O)N1C | 432 nM | 686 nM | 202 nM |
| CN=C1S/C(=C/c2cc(C)n(-c3ccccc3C)c2C)C(=O)N1C | > 50000 nM (inactive) | > 50000 nM (inactive) | inactive |
| CCN=C1S/C(=C/c2ccn(-c3ccc(F)cc3F)c2)C(=O)N1CC | inactive | > 50000 nM (inactive) | 5390 nM |
| CCN=C1S/C(=C/c2cc(C)n(-c3ccccn3)c2C)C(=O)N1CC | 158 nM | 212 nM | 102 nM |
| CCN=C1S/C(=C\c2ccn(-c3ccccc3F)c2)C(=O)N1CC | > 50000 nM (inactive) | > 50000 nM (inactive) | inactive |
| CCN=C1S/C(=C\c2cc(C)n(-c3ccccc3F)c2C)C(=O)N1CC | 116 nM | 268 nM | 368 nM |
| CC/N=C1/SC(=Cc2cc(C)n(Cc3ccccc3OC)c2C)C(=O)N1CC | 274 nM | 663 nM | 285 nM |
| COCCN=C1S/C(=C\c2cc(C)n(Cc3ccccc3)c2C)C(=O)N1CCOC | > 50000 nM (inactive) | > 50000 nM (inactive) | inactive |
| CN=C1S/C(=C\c2ccn(Cc3ccccc3)c2)C(=O)N1C | > 50000 nM (inactive) | > 50000 nM (inactive) | > 50000 nM (inactive) |
| CN=C1S/C(=C/c2cc(C)n(-c3ccc(F)cc3F)c2C)C(=O)N1C | 113 nM | 199 nM | 317 nM |
| CCN=C1S/C(=C/c2cc(C)n(C(C)c3ccccc3)c2C)C(=O)N1CC (stereo not drawn) | inactive | > 50000 nM (inactive) | inactive |
| CCN=C1S/C(=C/c2cc(C)n(-c3ccc(Cl)cc3F)c2C)C(=O)N1CC | 490 nM | 733 nM | 370 nM |
| CN=C1S/C(=C/c2cc(C)n(Cc3ccccc3)c2C)C(=O)N1C | 203 nM | 454 nM | 130 nM |
| CCN=C1S/C(=C/c2cc(C)n(-c3ncccc3F)c2C)C(=O)N1CC | 5310 nM | inactive | 918 nM |
| CN=C1NC(=O)/C(=C\c2cc(C)n(-c3ccccc3F)c2C)S1 | 5380 nM | 4530 nM | 942 nM |
| CCN=C1S/C(=C\c2cc(C)n(-c3ccccc3)c2C)C(=O)N1CC | 635 nM | 705 nM | 465 nM |
| CN=C1NC(=O)/C(=C\c2cc(C)n(-c3cccc(F)c3)c2C)S1 | > 50000 nM (inactive) | > 50000 nM (inactive) | > 50000 nM (inactive) |
| C/N=C1/SC(=Cc2cc(C)n(Cc3ccc(F)cc3F)c2C)C(=O)N1C | 84.7 nM | 195 nM | 161 nM |
